# Measured values as given in patent US10485235B2, “Aryloxypyrimidinyl ethers as herbicides” (FMC Corporation, priority 2015, dated 2019).
# How the values were obtained:
# Assay type in all cases: in vivo
# [1] = system: galium (catchweed bedstraw, Galium aparine); assay: Test A postemergence, galium; conditions: postemergence, 0 to 100 scale, 0 is no effect, 100 is complete control, approximately 10 days
# In short: (§1)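 Plants grown in pots of loam blended with sand were treated either before emergence, via directed soil spray, or after emergence at the one- to two-leaf stage. Following about 10 days in the greenhouse, each treatment was visually compared with untreated controls and rated from 0 (no effect) to 100 (complete control).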
# corn (Zea mays) = assay: Test A postemergence, corn; conditions: postemergence, 0 to 100 scale, 0 is no effect, 100 is complete control, approximately 10 days
# In short: as §1
# kochia (Kochia scoparia) [2] = assay: Test A preemergence, kochia; conditions: Preemergence, 0 to 100 scale (0 no effect, 100 complete control)
# In short: as §1
# [3] = system: pigweed (Amaranthus retroflexus); assay: Test A postemergence, pigweed; conditions: postemergence, 0 to 100 scale, 0 is no effect, 100 is complete control, approximately 10 days
# In short: as §1
# [4] = system: ducksalad (Heteranthera limosa); assay: Test B flooded paddy test, ducksalad; conditions: 250 g ai/ha, Flood; visual rating after 13 to 15 days; scale 0 to 100, 0 is no effect, 100 is complete control
# In short: (§2)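 Seedlings at the 2-leaf stage are flooded to 3 cm and treated via the paddy water. Greenhouse plants are compared with controls after 13 to 15 days and given a 0 (no effect) to 100 (complete control) rating.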
# [5] = system: sedge, umbrella (small-flower umbrella sedge, Cyperus difformis); assay: Test B flooded paddy test, umbrella sedge; conditions: 250 g ai/ha, Flood; visual rating after 13 to 15 days; scale 0 to 100, 0 is no effect, 100 is complete control
# In short: as §2
# [6] = system: ryegrass, Italian (Italian ryegrass, Lolium multiflorum); assay: Test A preemergence, Italian ryegrass; conditions: Preemergence, 0 to 100 scale (0 no effect, 100 complete control)
# In short: as §1
# [7] = system: ragweed (common ragweed, Ambrosia elatior); assay: Test A preemergence, ragweed; conditions: Preemergence, 0 to 100 scale (0 no effect, 100 complete control)
# In short: as §1
# [8] = system: barnyardgrass (Echinochloa crus-galli); assay: Test B flooded paddy test, barnyardgrass; conditions: 250 g ai/ha, Flood; visual rating after 13 to 15 days; scale 0 to 100, 0 is no effect, 100 is complete control
# In short: as §2
# [9] = system: foxtail, giant (giant foxtail, Setaria faberii); assay: Test A postemergence, giant foxtail; conditions: postemergence, 0 to 100 scale, 0 is no effect, 100 is complete control, approximately 10 days
# In short: as §1
# [10] = system: barnyardgrass (Echinochloa crus-galli); assay: Test A preemergence, barnyardgrass; conditions: Preemergence, 0 to 100 scale (0 no effect, 100 complete control)
# In short: as §1
# [11] = system: ragweed (common ragweed, Ambrosia elatior); assay: Test A postemergence, ragweed; conditions: postemergence, 0 to 100 scale, 0 is no effect, 100 is complete control, approximately 10 days
# In short: as §1
# [12] = system: ryegrass, Italian (Italian ryegrass, Lolium multiflorum); assay: Test A postemergence, Italian ryegrass; conditions: postemergence, 0 to 100 scale, 0 is no effect, 100 is complete control, approximately 10 days
# In short: as §1
# [13] = system: wheat (Triticum aestivum); assay: Test A postemergence, wheat; conditions: postemergence, 0 to 100 scale, 0 is no effect, 100 is complete control, approximately 10 days
# In short: as §1
# rice (Oryza sativa) = assay: Test B flooded paddy test, rice; conditions: 250 g ai/ha, Flood; visual rating after 13 to 15 days; scale 0 to 100, 0 is no effect, 100 is complete control
# In short: as §2
# [14] = system: pigweed (Amaranthus retroflexus); assay: Test A preemergence, pigweed; conditions: Preemergence, 0 to 100 scale (0 no effect, 100 complete control)
# In short: as §1
# kochia (Kochia scoparia) [15] = assay: Test A postemergence, kochia; conditions: postemergence, 0 to 100 scale, 0 is no effect, 100 is complete control, approximately 10 days
# In short: as §1
# [16] = system: foxtail, giant (giant foxtail, Setaria faberii); assay: Test A preemergence, giant foxtail; conditions: Preemergence, 0 to 100 scale (0 no effect, 100 complete control)
# In short: as §1
# [17] = system: blackgrass (Alopecurus myosuroides); assay: Test A postemergence, blackgrass; conditions: postemergence, 0 to 100 scale, 0 is no effect, 100 is complete control, approximately 10 days
# In short: as §1
# [18] = system: barnyardgrass (Echinochloa crus-galli); assay: Test A postemergence, barnyardgrass; conditions: postemergence, 0 to 100 scale, 0 is no effect, 100 is complete control, approximately 10 days
# In short: as §1
Compound,"Plant response rating, Galium ([1]; 31 g ai/ha)","Plant response rating, Galium ([1]; 125 g ai/ha)","Plant response rating, Corn (corn (Zea mays); 31 g ai/ha)","Plant response rating, Corn (corn (Zea mays); 125 g ai/ha)","Plant response rating, Kochia (kochia (Kochia scoparia) [2]; 31 g ai/ha)","Plant response rating, Kochia (kochia (Kochia scoparia) [2]; 125 g ai/ha)","Plant response rating, Pigweed ([3]; 31 g ai/ha)","Plant response rating, Pigweed ([3]; 125 g ai/ha)","Plant response rating, Ducksalad [4]","Plant response rating, Sedge, Umbrella [5]","Plant response rating, Ryegrass, Italian ([6]; 31 g ai/ha)","Plant response rating, Ryegrass, Italian ([6]; 125 g ai/ha)","Plant response rating, Ragweed ([7]; 31 g ai/ha)","Plant response rating, Ragweed ([7]; 125 g ai/ha)","Plant response rating, Barnyardgrass [8]","Plant response rating, Foxtail, Giant ([9]; 31 g ai/ha)","Plant response rating, Foxtail, Giant ([9]; 125 g ai/ha)","Plant response rating, Barnyardgrass ([10]; 31 g ai/ha)","Plant response rating, Barnyardgrass ([10]; 125 g ai/ha)","Plant response rating, Ragweed ([11]; 31 g ai/ha)",also measured
FC(F)(F)CCOc1c(Cl)cccc1Oc1ncc(Cl)cn1 [Compound 43],20,60,10,10,0,90,50,90,100,90,0,10,0,0,0,10,40,20,70,0,"Plant response rating, Ragweed ([11]; 125 g ai/ha): 0; Plant response rating, Ryegrass, Italian ([12]; 31 g ai/ha): 0; Plant response rating, Ryegrass, Italian ([12]; 125 g ai/ha): 0; Plant response rating, Wheat ([13]; 31 g ai/ha): 0; Plant response rating, Wheat ([13]; 125 g ai/ha): 0; Plant response rating, Rice (rice (Oryza sativa)): 50; Plant response rating, Pigweed ([14]; 31 g ai/ha): 40; Plant response rating, Pigweed ([14]; 125 g ai/ha): 100; Plant response rating, Kochia (kochia (Kochia scoparia) [15]; 31 g ai/ha): 30; Plant response rating, Kochia (kochia (Kochia scoparia) [15]; 125 g ai/ha): 80; Plant response rating, Foxtail, Giant ([16]; 31 g ai/ha): 10; Plant response rating, Foxtail, Giant ([16]; 125 g ai/ha): 100; Plant response rating, Blackgrass ([17]; 31 g ai/ha): 0; Plant response rating, Blackgrass ([17]; 125 g ai/ha): 30; Plant response rating, Barnyardgrass ([18]; 31 g ai/ha): 0; Plant response rating, Barnyardgrass ([18]; 125 g ai/ha): 30"
FCCCOc1c(Cl)cccc1Oc1ncc(Cl)cn1 [Compound 44],10,20,0,10,0,40,30,70,70,30,0,0,0,0,0,0,20,10,20,0,"Plant response rating, Ragweed ([11]; 125 g ai/ha): 0; Plant response rating, Ryegrass, Italian ([12]; 31 g ai/ha): 0; Plant response rating, Ryegrass, Italian ([12]; 125 g ai/ha): 0; Plant response rating, Wheat ([13]; 31 g ai/ha): 0; Plant response rating, Wheat ([13]; 125 g ai/ha): 0; Plant response rating, Rice (rice (Oryza sativa)): 0; Plant response rating, Pigweed ([14]; 31 g ai/ha): 10; Plant response rating, Pigweed ([14]; 125 g ai/ha): 100; Plant response rating, Kochia (kochia (Kochia scoparia) [15]; 31 g ai/ha): 20; Plant response rating, Kochia (kochia (Kochia scoparia) [15]; 125 g ai/ha): 70; Plant response rating, Foxtail, Giant ([16]; 31 g ai/ha): 10; Plant response rating, Foxtail, Giant ([16]; 125 g ai/ha): 80; Plant response rating, Blackgrass ([17]; 31 g ai/ha): 0; Plant response rating, Blackgrass ([17]; 125 g ai/ha): 10; Plant response rating, Barnyardgrass ([18]; 31 g ai/ha): 0; Plant response rating, Barnyardgrass ([18]; 125 g ai/ha): 10"
N#CCCCOc1c(Cl)cccc1Oc1ncc(Cl)cn1 [Compound 45],10,20,0,10,0,30,20,50,20,0,0,0,0,0,0,0,10,0,10,10,"Plant response rating, Ragweed ([11]; 125 g ai/ha): 10; Plant response rating, Ryegrass, Italian ([12]; 31 g ai/ha): 0; Plant response rating, Ryegrass, Italian ([12]; 125 g ai/ha): 0; Plant response rating, Wheat ([13]; 31 g ai/ha): 0; Plant response rating, Wheat ([13]; 125 g ai/ha): 0; Plant response rating, Rice (rice (Oryza sativa)): 0; Plant response rating, Pigweed ([14]; 31 g ai/ha): 20; Plant response rating, Pigweed ([14]; 125 g ai/ha): 70; Plant response rating, Kochia (kochia (Kochia scoparia) [15]; 31 g ai/ha): 20; Plant response rating, Kochia (kochia (Kochia scoparia) [15]; 125 g ai/ha): 50; Plant response rating, Foxtail, Giant ([16]; 31 g ai/ha): 0; Plant response rating, Foxtail, Giant ([16]; 125 g ai/ha): 30; Plant response rating, Blackgrass ([17]; 31 g ai/ha): 0; Plant response rating, Blackgrass ([17]; 125 g ai/ha): 0; Plant response rating, Barnyardgrass ([18]; 31 g ai/ha): 0; Plant response rating, Barnyardgrass ([18]; 125 g ai/ha): 10"
FC(F)(F)CCCOc1c(Cl)cccc1Oc1ncc(Cl)cn1 [Compound 46],30,70,10,20,0,80,50,90,98,100,0,10,0,0,0,20,60,10,80,0,"Plant response rating, Ragweed ([11]; 125 g ai/ha): 10; Plant response rating, Ryegrass, Italian ([12]; 31 g ai/ha): 0; Plant response rating, Ryegrass, Italian ([12]; 125 g ai/ha): 10; Plant response rating, Wheat ([13]; 31 g ai/ha): 0; Plant response rating, Wheat ([13]; 125 g ai/ha): 0; Plant response rating, Rice (rice (Oryza sativa)): 0; Plant response rating, Pigweed ([14]; 31 g ai/ha): 0; Plant response rating, Pigweed ([14]; 125 g ai/ha): 100; Plant response rating, Kochia (kochia (Kochia scoparia) [15]; 31 g ai/ha): 50; Plant response rating, Kochia (kochia (Kochia scoparia) [15]; 125 g ai/ha): 80; Plant response rating, Foxtail, Giant ([16]; 31 g ai/ha): 40; Plant response rating, Foxtail, Giant ([16]; 125 g ai/ha): 100; Plant response rating, Blackgrass ([17]; 31 g ai/ha): 0; Plant response rating, Blackgrass ([17]; 125 g ai/ha): 40; Plant response rating, Barnyardgrass ([18]; 31 g ai/ha): 0; Plant response rating, Barnyardgrass ([18]; 125 g ai/ha): 30"
FC(F)(F)/C=C/COc1c(Cl)cccc1Oc1ncc(Cl)cn1 [Compound 47],50,80,10,20,0,80,20,90,85,100,0,10,0,0,0,20,70,10,50,0,"Plant response rating, Ragweed ([11]; 125 g ai/ha): 10; Plant response rating, Ryegrass, Italian ([12]; 31 g ai/ha): 0; Plant response rating, Ryegrass, Italian ([12]; 125 g ai/ha): 10; Plant response rating, Wheat ([13]; 31 g ai/ha): 0; Plant response rating, Wheat ([13]; 125 g ai/ha): 0; Plant response rating, Rice (rice (Oryza sativa)): 0; Plant response rating, Pigweed ([14]; 31 g ai/ha): 0; Plant response rating, Pigweed ([14]; 125 g ai/ha): 60; Plant response rating, Kochia (kochia (Kochia scoparia) [15]; 31 g ai/ha): 50; Plant response rating, Kochia (kochia (Kochia scoparia) [15]; 125 g ai/ha): 90; Plant response rating, Foxtail, Giant ([16]; 31 g ai/ha): 30; Plant response rating, Foxtail, Giant ([16]; 125 g ai/ha): 100; Plant response rating, Blackgrass ([17]; 31 g ai/ha): 10; Plant response rating, Blackgrass ([17]; 125 g ai/ha): 50; Plant response rating, Barnyardgrass ([18]; 31 g ai/ha): 10; Plant response rating, Barnyardgrass ([18]; 125 g ai/ha): 40"
